From patent US20090281083A1, “Combination Product” (ASTRAZENECA AB, priority 2005, published 2009)

Assays:
5/6 nephrectomy rats [1] = test: Histological mesangial expansion score of kidneys of 5/6 nephrectomised rats; assay type: in vivo, male Wistar rats; settings: 4 months into the study (3 months of drug treatment); candesartan cilexetil 5 mg/kg/day p.o., BH4 10 mg/kg/day i.p.; untreated Nx 200, sham 0
Procedure: Sixty male Wistar rats, mean weight 324±4 g, were fed a normal chow diet and allowed distilled water ad libitum. The 5/6 nephrectomy was performed according to standard protocol. In brief, the animals were anaesthetized with pentobarbital [35 mg/kg body weight (BW) intraperitoneally] and then underwent a right nephrectomy and ligature of two of the major branches of the left main renal artery (Nx) at day 0. AII the nephrectomies were carried out by one operator. The animals were then randomly assigned to one of five groups, as follows. • Group 1. SHAM (n=12); sham-operated rats. • Group 2. Nx (n=15); untreated 5/6 nephrectomy rats. • Group 3. […]
Drug administration was begun 30 days after surgery (at a point when the nephrectomised rats have already developed hypertension and renal insufficiency). […] Systolic blood pressure (SBP) was measured in trained unstressed rats 1 day before surgery and at 30, 60, 90 and 120 days, by tail cuff manometry using an automated sphygmomanometer (Narco Bio Systems, Austin, Tex., USA). […]
Kidneys were fixed in neutral buffered formalin and embedded in paraffin for light microscopic study. […] A semi-quantitative score was used to assess the severity of glomerular lesions (see Nephrol. Dial. Transplant. 8, 501-506 (1993), the disclosures of which document are hereby incorporated by reference). […]

5/6 nephrectomy rats [2] = test: Survival of 5/6 nephrectomised rats at 4 months; assay type: in vivo, male Wistar rats; settings: 4 months into the study (3 months of drug treatment); candesartan cilexetil 5 mg/kg/day p.o., BH4 10 mg/kg/day i.p.
Procedure: Sixty male Wistar rats, mean weight 324±4 g, were fed a normal chow diet and allowed distilled water ad libitum. The 5/6 nephrectomy was performed according to standard protocol. In brief, the animals were anaesthetized with pentobarbital [35 mg/kg body weight (BW) intraperitoneally] and then underwent a right nephrectomy and ligature of two of the major branches of the left main renal artery (Nx) at day 0. AII the nephrectomies were carried out by one operator. The animals were then randomly assigned to one of five groups, as follows. • Group 1. SHAM (n=12); sham-operated rats. • Group 2. Nx (n=15); untreated 5/6 nephrectomy rats. • Group 3. C (n=11); 5/6 nephrectomy rats to which candesartan cilexetil (AstraZeneca AB) was given daily at a dose of 5 mg/kg BW/day. • Group 4. BH4 (n=10); 5/6 nephrectomy rats administered BH4 (Alexis Biochemical, Lausen), 10 mg/kg BW/day intraperitoneally (see Hypertension 38, 1044-1048 (2001), the disclosures of which document are hereby incorporated by reference). • Group 5. C+B (n=12); 5/6 nephrectomy rats to which candesartan cilexetil (AstraZeneca AB) was given daily at a dose of 5 mg/kg BW/day and BH4 (Alexis Biochemical, Lausen), was administered at a dose of 10 mg/kg BW/day intraperitoneally.
Drug administration was begun 30 days after surgery (at a point when the nephrectomised rats have already developed hypertension and renal insufficiency). […] Systolic blood pressure (SBP) was measured in trained unstressed rats 1 day before surgery and at 30, 60, 90 and 120 days, by tail cuff manometry using an automated sphygmomanometer (Narco Bio Systems, Austin, Tex., USA). The Animal Care and Use Committee of Meir Hospital approved all procedures.
Due to abnormalities found by way of post-study autopsies, two rats were excluded from the analysis of the “C+B” group (i.e. Group 5).
At a point 4 months into the study (3 months of drug treatment for rats in groups 3 to 5), survival rates were as follows.

CCOc1nc2cccc(C(=O)OC(C)OC(=O)OC3CCCCC3)c2n1Cc1ccc(-c2ccccc2-c2nnn[nH]2)cc1 (centres unmarked) [candesartan cilexetil, 1-(cyclohexyloxycarbonyloxy)ethyl ester of candesartan]
ME Score (mesangial expansion score, median value) (5/6 nephrectomy rats [1]): 82
Survival (% age) (5/6 nephrectomy rats [2]): (63.64%)
Survival (surviving rats of group) (5/6 nephrectomy rats [2]): 7 of 11

C[C@H](O)[C@H](O)[C@H]1CNc2nc(N)[nH]c(=O)c2N1 [BH4, Tetrahydrobiopterin]
ME Score (mesangial expansion score, median value) (5/6 nephrectomy rats [1]): 158
Survival (% age) (5/6 nephrectomy rats [2]): (50%)
